Tested on: Pseudomonas infections caused by known producers of GAT I
Test: Mouse protection test, Pseudomonas infection
Assay type: in vivo, CF1 (Carworth Farms) mice
Settings: CF1 mice 18 to 20 g
Description: B. Mouse protection tests were performed in the usual manner using CF1 (Carworth Farms) mice weighing 18 to 20 g. each. […] Thus, the compounds of this invention may be used to control or eradicate susceptible bacterial strains in warm blooded animals, particularly in laboratory animals.

## CN[C@@H]1[C@@H](O)[C@@H](O[C@@H]2[C@@H](O)[C@H](O[C@H]3OC(CN)=CC[C@H]3N)[C@@H](N)C[C@H]2N)OC[C@]1(C)O [sisomicin]
  protection (mouse protection test, PD50): slight protection
